This is an account of results in paper PMC11643962, “Exploring 4,7-Disubstituted Pyrimido[4,5-d]pyrimidines as Antiviral and Anticancer Agents” (Molecules, 2024).

In general, EC50 refers to the midpoint of the concentration-response curve. As usually defined, the IC50 is the point on the concentration scale where inhibition reaches its midpoint.

Like-named read-outs stand apart in the source and are kept apart here. Where only a bound is given, the exact number is not on record here.

One series relates to HCoV-229E. The series can be described thus: Antiviral CPE reduction assay, HCoV-229E in HEL299 cells. It counts as cell-based, human coronavirus 229E. To be noted: Human coronavirus 229E, HEL 299, MTS, mean ± SD of two or three independent experiments.
A further series relates to HCoV-OC43. Put plainly: Antiviral CPE reduction assay, HCoV-OC43 in HEL299 cells. It counts as cell-based, human coronavirus OC43. To be noted: Betacoronavirus 1, OC43, HEL 299, MTS, mean ± SD of two or three independent experiments.
In the next series the test system is HCoV-NL63. Put plainly: Antiviral CPE reduction assay, HCoV-NL63 in Hep3B cells. It counts as cell-based, human coronavirus NL63. The note with it: Human coronavirus NL63, MTS, mean ± SD of two or three independent experiments.
In series [1] the test system is influenza A/H1N1 (A/Ned/378/05). The series can be described thus: Antiviral CPE reduction assay, influenza A/H1N1 in MDCK cells. Format: cell-based, influenza A virus. The note with it: Influenza A virus, read-out: Antiviral Activity (EC50) Influenza H1N1.
The subject of series [2] is influenza A/H3N2 (A/HK/7/87). The series can be described thus: Antiviral CPE reduction assay, influenza A/H3N2 in MDCK cells. Format: cell-based, influenza A virus. To be noted: Influenza A virus, read-out: Antiviral Activity (EC50) Influenza H3N2.
Series [3] concerns influenza B (B/Ned/537/05). The series can be described thus: Antiviral CPE reduction assay, influenza B in MDCK cells. It counts as cell-based, influenza B virus. To be noted: Influenza B virus, read-out: Antiviral Activity (EC50) Influenza B.
For series [4], the system named is respiratory syncytial virus A (RSV A Long). Put plainly: Antiviral CPE reduction assay, RSV A Long in Hep2 cells. Format: cell-based. To be noted: human respiratory syncytial virus.
Series [5] deals with herpes simplex virus-1 (HSV-1 KOS). The series can be described thus: Antiviral CPE reduction assay, HSV-1 KOS in HEL299 cells. Format: cell-based. The note with it: Human alphaherpesvirus 1, HEL 299, MTS, mean ± SD, no unit printed on the supplement page (Table 2 of the same screen is in µM).
The test system of series [6] is yellow fever virus (YFV 17D). Put plainly: microbe, parasite or virus in culture. Format: cell-based. To be noted: Yellow fever virus, Vero C1008, read-out: Antiviral activity (EC50) YFV 17D.
The subject of another series is Zika virus (ZikV mr766). The series can be described thus: Antiviral CPE reduction assay, Zika virus mr766 in VeroE6 cells. Format: cell-based. To be noted: Zika virus, Vero C1008, MTS, mean ± SD, no unit printed on the supplement page (Table 2 of the same screen is in µM).
Series [7] is described as follows: in vitro. The note with it: dog.
Series [8] is described as follows: in vitro. To be noted: African green monkey.
Series [9] concerns HL-60 (acute myeloid leukemia). Put plainly: MTS proliferation assay, HL-60. To be noted: Homo sapiens, HL-60, 72 h, read-out: Anti-Proliferative Activity (IC50) HL-60. Background: Formazan colour is commonly taken as a measure of viable cells.
The subject of series [10] is K-562 (chronic myeloid leukemia). The series can be described thus: MTS proliferation assay, K-562. To be noted: Homo sapiens, K562, 72 h, read-out: Anti-Proliferative Activity (IC50) K-562.
Series [11] has as its system Z-138 (non-Hodgkin lymphoma). Put plainly: MTS proliferation assay, Z-138. The note with it: Homo sapiens, Z-138, 72 h, read-out: Anti-Proliferative Activity (IC50) Z-138.
The test system of another series is LN-229 (glioblastoma). Put plainly: MTS proliferation assay, LN-229. The note with it: Homo sapiens, LN-229, 72 h, read-out: Anti-Proliferative Activity (IC50) LN-229.
In series [12] the test system is DND-41 (acute lymphoblastic leukemia). Put plainly: MTS proliferation assay, DND-41. To be noted: Homo sapiens, DND41, 72 h, read-out: Anti-Proliferative Activity (IC50) DND-41.
The test system of series [13] is Capan-1 (pancreatic adenocarcinoma). Put plainly: MTS proliferation assay, Capan-1. The note with it: Homo sapiens, CAPAN-1, 72 h, read-out: Anti-Proliferative Activity (IC50) Capan-1.
Series [14] concerns HCT-116 (colorectal carcinoma). The series can be described thus: MTS proliferation assay, HCT-116. To be noted: Homo sapiens, HCT-116, 72 h, read-out: Anti-Proliferative Activity (IC50) HCT-116.
The subject of series [15] is NCI-H460 (lung carcinoma). Put plainly: MTS proliferation assay, NCI-H460. The note with it: Homo sapiens, NCI-H460, 72 h, read-out: Anti-Proliferative Activity (IC50) NCI-H460.
Series [16] deals with eight diverse human cancer cell lines. The series can be described thus: MTS proliferation assay, panel of eight human cancer cell lines (statements for the whole panel). To be noted: 72 h.
Series [17] in a line: in vitro. The note with it: human.
Series [18] can be described thus: in vitro. The note with it: human. The source holds these as a separate data set.
The nature of series [19]: in vitro. The note with it: human. This is another data set of the same source.
[20] abbreviates: H1N1, MDCK cells, CPE reduction, MTS, mean ± SD of two or three independent experiments.
[21] abbreviates: H3N2, MDCK cells, CPE reduction, MTS, mean ± SD of two or three independent experiments.
[22] abbreviates: HEp-2, Hep2 cells, CPE reduction, MTS, mean ± SD of two or three independent experiments, read-out: Antiviral Activity (EC50) RSV A Long.
[23] abbreviates: read-out: CC50 values (cytotoxic activity) in the cancer cell line panel.

As to `CC#CC(=O)Nc1ccc2ncnc(Nc3cccc(Br)c3)c2c1` [CL-387785, reference compound], the EC50 with HCoV-229E is 0.4 ± 0.2 µM; in the series on HCoV-OC43, 1.8 ± 0.4 µM; with HCoV-NL63 it was over 100 µM; in series [1] (H1N1, MDCK) it was over 100 µM; in series [2] (H3N2, MDCK) it was over 100 µM; in [3] (MDCK), 4.5 ± 1.2 µM. Further, the EC50 was over 100 µM in series [4] (HEp-2, read-out: Antiviral Activity (EC50) RSV A Long); 1 µM in series [5]; over 100 µM in [6]; over 100 µM in the series on Zika virus (ZikV mr766). For the same compound, the CC50 is 7.1 ± 0.4 µM in “in vitro [7]”, over 100 µM in the series “in vitro [8]” and under 10 µM in series [16] (read-out: CC50 values (anti-proliferative activity) against the majority of the tested cell lines). The IC50 worked out at 1.9 ± 0.04 µM in [9]; 65 ± 0.2 µM in series [10]; 0.2 ± 0.1 µM in series [11]; 43.8 ± 6.7 µM with LN-229 (glioblastoma); 0.9 ± 0.2 µM in series [12]; 0.1 ± 0.01 µM in series [13]. Moreover, the IC50 in series [14] was 1.3 ± 1.1 µM; in series [15] it was 2.8 ± 0.6 µM.

With `C#Cc1cccc(Nc2ncnc3cc4c(cc23)OCCOCCOCCO4)c1` [Icotinib, icotinib, reference compound], the EC50 in the series with HCoV-229E is over 100 µM; in the series on HCoV-OC43 it was over 100 µM; in the series on HCoV-NL63 it was over 100 µM; in series [1] (setting [20]), over 100 µM; in [2] (setting [21]), over 100 µM; in series [3] (MDCK cells, CPE reduction, MTS, mean ± SD of two or three independent experiments), over 100 µM. For the same compound, the EC50 (in [4] (setting [22]); in [5]; in [6]; with Zika virus (ZikV mr766)) was over 100 µM each time. For the same compound, the CC50 (in “in vitro [17]”; in “in vitro [18]”; in the series “in vitro [7]”; in “in vitro [19]”; in “in vitro [8]”; in [16] (setting [23])) was over 100 µM in each case. Besides, the IC50 (in [9]; in [10]; in series [11]; with LN-229 (glioblastoma); in series [12]; in series [13]) was over 100 µM in each case. For the same compound, the IC50 in series [14] and in series [15] was over 100 µM throughout.

As for `C=CC(=O)Nc1cccc(Oc2nc(Nc3ccc(N4CCN(C)CC4)cc3OC)ncc2Cl)c1` [WZ4002, reference compound], the EC50 with HCoV-229E was 41.8 ± 9.8 µM; with HCoV-OC43, over 100 µM; with HCoV-NL63, over 100 µM; in series [1] (setting [20]), over 100 µM; in series [2] (setting [21]), over 100 µM; in series [3] (MDCK), over 100 µM. The EC50 (in series [4] (setting [22]); in [5]; in series [6]; in the series on Zika virus (ZikV mr766)) was over 100 µM each time. Also, the CC50 (in the series “in vitro [17]”; in the series “in vitro [18]”; in “in vitro [7]”; in “in vitro [19]”; in “in vitro [8]”; in series [16] (setting [23])) was over 100 µM in each case. For the same compound, the IC50 (in series [9]; in [10]; in series [11]; with LN-229 (glioblastoma); in series [12]; in series [13]) was over 100 µM in each case. Moreover, the IC50 in series [14] and in [15] was over 100 µM throughout.
